Measurements reported in US8119621B2, “Tetrahydro-cyclopentyl pyrazole cannabinoid modulators” (Janssen Pharmaceutica N.V., priority 2005, dated 2012).
Where two headings read alike, the source gives them in different places.

What was measured:
[1] = target: T1, human CB2 receptor (Homo sapiens, UniProt P34972); assay: Binding assay for CB2 agonists or inverse agonists ([3H]-CP-55,940 displacement, SK-N-MC membranes); conditions: read-out: CB2 receptor binding percent inhibition
T1 construct: expressed in transfected cells; host or cells: SK-N-MC cells, stably transfected with pcDNA3 CB-2 (human); semi-purified membrane pellet
T1 sequence (P34972 whole entry): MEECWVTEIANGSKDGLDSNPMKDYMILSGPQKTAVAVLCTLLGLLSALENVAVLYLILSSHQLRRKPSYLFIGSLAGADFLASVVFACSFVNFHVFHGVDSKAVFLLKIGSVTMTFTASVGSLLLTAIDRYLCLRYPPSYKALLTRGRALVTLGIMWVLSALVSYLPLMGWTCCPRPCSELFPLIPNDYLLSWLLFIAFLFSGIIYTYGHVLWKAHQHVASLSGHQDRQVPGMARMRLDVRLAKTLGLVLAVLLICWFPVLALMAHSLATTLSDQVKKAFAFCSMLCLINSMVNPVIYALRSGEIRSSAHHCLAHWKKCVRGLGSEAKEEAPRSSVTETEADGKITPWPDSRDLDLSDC
Experimental: (§1) The human CB1 and CB2 receptors were stably expressed in SK-N-MC cells transfected with pcDNA3 CB-1 (human) or pcDNA3 CB-2 (human). The cells were grown in T-180 cell culture flasks under standard cell culture conditions at 37° C. in a 5% CO2 atmosphere. The cells were harvested by trysinization and homogenized in a homogenization buffer (10 mM Tris, 0.2 mM MgCl2, 5 mM KCl, with protease inhibitors aprotinin, leupeptin, pepstatin A and bacitracin) and centrifuged (2000 g). The supernatant was then centrifuged in 2M sucrose (31,300 g) to produce a semi-purified membrane pellet. The pellet was resuspended in homogenization and stored at −80° C.
(§2) On the day of the assay, the pellet was thawed on ice and diluted in assay buffer (50 mM Tris-HCl, 5 mM MgCl2, 2.5 mM EDTA, 0.5 mg/mL fatty acid free bovine serum albumin, pH 7.5). […] The plate was covered and incubated for 90 minutes at 30° C. The contents were then aspirated onto a Packard Unifilter GF/C filter bottom plate prewet with 0.5% polyethyleneimine. The wells of the polypropylene plate were rinsed and aspirated seven times with a 0.9% saline-0.5% Tween 20 solution. The Unifilter plate was dried, a scintillation cocktail was added to each well and the counts representing binding were quantitated in a TopCount scintillation counter.
(§3) For compounds tested, an IC50 binding value was obtained from percent inhibition studies in which various test concentrations were used. The binding value was calculated by linear regression.

[2] = target: T2, human CB1 receptor (Homo sapiens, UniProt P21554); assay: Binding assay for CB1 agonists or inverse agonists ([3H]-CP-55,940 displacement, SK-N-MC membranes); conditions: for inhibition at 0.25 µM: read-out: CB1 receptor binding percent inhibition
T2 construct: expressed in transfected cells; host or cells: SK-N-MC cells, stably transfected with pcDNA3 CB-1 (human); semi-purified membrane pellet
T2 sequence (P21554 whole entry): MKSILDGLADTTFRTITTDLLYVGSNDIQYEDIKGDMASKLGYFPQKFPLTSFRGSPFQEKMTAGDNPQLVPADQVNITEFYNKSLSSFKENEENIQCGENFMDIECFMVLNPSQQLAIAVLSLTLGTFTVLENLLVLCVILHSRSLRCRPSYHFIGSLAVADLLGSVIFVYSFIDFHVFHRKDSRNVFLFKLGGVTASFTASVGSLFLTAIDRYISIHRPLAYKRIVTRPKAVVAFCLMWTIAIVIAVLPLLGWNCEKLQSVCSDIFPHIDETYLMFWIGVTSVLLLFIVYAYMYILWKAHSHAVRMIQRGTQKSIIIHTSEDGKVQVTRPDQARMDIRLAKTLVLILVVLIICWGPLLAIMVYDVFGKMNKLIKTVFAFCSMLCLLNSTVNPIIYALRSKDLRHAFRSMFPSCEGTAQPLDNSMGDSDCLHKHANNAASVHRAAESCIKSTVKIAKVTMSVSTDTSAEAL
Experimental: as §1, §2, §3

[3] = target: T2, human CB1 receptor; assay: Functional cell-based assay, CB1 receptor mediated change in CRE β-gal expression (adenylate cyclase activity); conditions: for CB1 Receptor Functional Activity (change in functional activity): one compound concentration, vehicle treated cell = 100%
Source text: The CB1 and CB2 receptors are G-protein coupled receptors (GPCR), which influence cell function via the Gi-protein. These receptors modulate the activity of intracellular adenylate cyclase, which in turn produces the intracellular signal messenger cyclic-AMP (cAMP).
At baseline, or during non-ligand bound conditions, these receptors are constitutively active and tonically suppress adenylate cyclase activity. The binding of an agonist causes further receptor activation and produces additional suppression of adenylate cyclase activity. The binding of an inverse agonist inhibits the constitutive activity of the receptors and results in an increase in adenylate cyclase activity.
Test compounds were evaluated in SK-N-MC cells which, using standard transfection procedures, were stably transfected with human cDNA for pcDNA3-CRE β-gal and pcDNA3 CB1 receptor (human) or pcDNA3 CB2 receptor (human). By expressing CRE β-gal, the cells produced β-galactosidase in response to CRE promoter activation by cAMP. Cells expressing CRE β-gal and either the human CB1 or CB2 receptor will produce less β-galactosidase when treated with a CB1/CB2 agonist and will produce more β-galactosidase when treated with a CB1/CB2 inverse agonist.
The cells were grown in 96-well plates under standard cell culture conditions at 37° C. in a 5% CO2 atmosphere. After 3 days, the media was removed and a test compound in media (wherein the media was supplemented with 2 mM L-glutamine, […] sodium pyruvate, 0.1% low fatty acid FBS (fetal bovine serum) and antibiotics) was added to the cell. The plates were incubated for 30 minutes at 37° C. and the plate cells were then treated with forskolin over a 4-6 hour period, then washed and lysed. The β-galactosidase activity was quantitated using commercially available kit reagents (Promega Corp. Madison, Wis.) and a Vmax Plate Reader (Molecular Devices, Inc).
The change in β-galactosidase activity was determined by setting a vehicle treated cell's activity value at 100% and expressing the β-galactosidase activity measured in a corresponding compound treated cell as a percent of the vehicle treated cell activity.
The EC50 value for functional activity for compounds tested was calculated by linear regression and was obtained from studies in which varying compound concentrations were used.
Where an EC50 value was not obtained for a test compound, the value shown (in %) represents change in functional activity and was obtained from a study in which one compound concentration was used.

[4] = test concentration 0.25 μM (footnote 3)
[5] = CB1 Receptor Functional Inverse Agonist EC50, SK-N-MC cells, CRE β-gal, forskolin

SMILES | inhibition at 0.25 µM [1, 4] | inhibition at 0.25 µM [2, 4] | EC50 [3] | inhibition at 0.25 µM [2] | EC50 [3, 5] | inhibition at 0.25 µM [1] | IC50 [2] | CB1 Receptor Functional Activity (change in functional activity) [3]
C[C@H](NC(=O)c1nn(-c2ccc(F)cc2F)c2c1CCC2Cc1cccc(F)c1)c1ccccc1 (stereo partly drawn) [Cpd 18, 1-(2,4-difluoro-phenyl)-6-(3-fluoro-benzyl)-1,4,5,6-tetrahydro-cyclopentapyrazole-3-carboxylic acid [(1S)-1-phenyl-ethyl]-amide] | 19% | 66% | 10000 nM | – | – | – | – | –
O=C(NCc1ccccc1)c1nn(-c2ccc(F)cc2F)c2c1CCC2Cc1cccc(F)c1 (stereo not shown) [Cpd 16, 1-(2,4-difluoro-phenyl)-6-(3-fluoro-benzyl)-1,4,5,6-tetrahydro-cyclopentapyrazole-3-carboxylic acid benzylamide] | 0% | – | – | 26% | 400 nM | – | – | –
C[C@@H](NS(=O)(=O)/C=C/c1nn(-c2ccc(F)cc2F)c2c1CCC2Cc1cccc(F)c1)C1CCCCC1 (stereo partly drawn) [Cpd 5, (2E)-2-[1-(2,4-difluoro-phenyl)-6-(3-fluoro-benzyl)-1,4,5,6-tetrahydro-cyclopentapyrazol-3-yl]-ethenesulfonic acid [(1R)-1-cyclohexyl-ethyl]-amide] | 4% | 44% | – | – | 200 nM | – | – | –
C[C@@H](NC(=O)c1nn(-c2ccc(F)cc2F)c2c1CCC2Cc1cccc(F)c1)C1CCCCC1 (stereo partly drawn) [Cpd 21, 1-(2,4-difluoro-phenyl)-6-(3-fluoro-benzyl)-1,4,5,6-tetrahydro-cyclopentapyrazole-3-carboxylic acid [(1R)-1-cyclohexyl-ethyl]-amide] | – | – | – | 67% | 40 nM | 61% | 80 nM | –
O=S(=O)(/C=C/c1nn(-c2ccc(F)cc2F)c2c1CCC2Cc1cccc(F)c1)NN1CCCCC1 (stereo not shown) [Cpd 3, (2E)-2-[1-(2,4-difluoro-phenyl)-6-(3-fluoro-benzyl)-1,4,5,6-tetrahydro-cyclopentapyrazol-3-yl]-ethenesulfonic acid piperidin-1-ylamide] | 0% | 22% | 5600 nM | – | – | – | – | –
O=C(NN1CCCCC1)c1nn(-c2ccc(F)cc2F)c2c1CCC2Cc1cccc(F)c1 (stereo not shown) [Cpd 6, 1-(2,4-difluoro-phenyl)-6-(3-fluoro-benzyl)-1,4,5,6-tetrahydro-cyclopentapyrazole-3-carboxylic acid piperidin-1-ylamide] | 12% | 4% | 200 nM | – | – | – | – | –
O=C(c1nn(-c2ccc(F)cc2F)c2c1CCC2Cc1cccc(F)c1)N1CCCCC1 (stereo not shown) [Cpd 8, [1-(2,4-difluoro-phenyl)-6-(3-fluoro-benzyl)-1,4,5,6-tetrahydro-cyclopentapyrazol-3-yl]-piperidin-1-yl-methanone] | 0% | 6% | – | – | – | – | – | 21%
C[C@@H](NC(=O)c1nn(-c2ccc(F)cc2F)c2c1CCC2Cc1cccc(F)c1)c1ccccc1 (stereo partly drawn) [Cpd 19, 1-(2,4-difluoro-phenyl)-6-(3-fluoro-benzyl)-1,4,5,6-tetrahydro-cyclopentapyrazole-3-carboxylic acid [(1R)-1-phenyl-ethyl]-amide] | 26% | 52% | 200 nM | – | – | – | – | –
C[C@@H](NS(=O)(=O)/C=C/c1nn(-c2ccc(F)cc2F)c2c1CCC2Cc1cccc(F)c1)c1ccccc1 (stereo partly drawn) [Cpd 4, (2E)-2-[1-(2,4-difluoro-phenyl)-6-(3-fluoro-benzyl)-1,4,5,6-tetrahydro-cyclopentapyrazol-3-yl]-ethenesulfonic acid [(1R)-1-phenyl-ethyl]-amide] | – | – | – | 24% | – | 17% | – | 34%
COC(=O)[C@@H](Cc1ccc(F)cc1)NC(=O)c1nn(-c2ccc(F)cc2F)c2c1CCC2Cc1cccc(F)c1 (stereo partly drawn) [Cpd 14, (2R)-2-{[1-(2,4-difluoro-phenyl)-6-(3-fluoro-benzyl)-1,4,5,6-tetrahydro-cyclopentapyrazole-3-carbonyl]-amino}-3-(4-fluoro-phenyl)-propionic acid methyl ester] | 30% | 50% | – | – | – | – | – | 48%
COC(=O)[C@@H](Cc1ccc(O)cc1)NC(=O)c1nn(-c2ccc(F)cc2F)c2c1CCC2Cc1cccc(F)c1 (stereo partly drawn) [Cpd 15, (2R)-2-{[1-(2,4-difluoro-phenyl)-6-(3-fluoro-benzyl)-1,4,5,6-tetrahydro-cyclopentapyrazole-3-carbonyl]-amino}-3-(4-hydroxy-phenyl)-propionic acid methyl ester] | 50% | 54% | – | – | – | – | – | −15%
